The values below come from PMC2878737 (Channels (Austin, Tex.), 2009).

This test deals with NaV1.2 (Rattus norvegicus, UniProt P04775).
Sequence of NaV1.2 (P04775 whole entry, looked up): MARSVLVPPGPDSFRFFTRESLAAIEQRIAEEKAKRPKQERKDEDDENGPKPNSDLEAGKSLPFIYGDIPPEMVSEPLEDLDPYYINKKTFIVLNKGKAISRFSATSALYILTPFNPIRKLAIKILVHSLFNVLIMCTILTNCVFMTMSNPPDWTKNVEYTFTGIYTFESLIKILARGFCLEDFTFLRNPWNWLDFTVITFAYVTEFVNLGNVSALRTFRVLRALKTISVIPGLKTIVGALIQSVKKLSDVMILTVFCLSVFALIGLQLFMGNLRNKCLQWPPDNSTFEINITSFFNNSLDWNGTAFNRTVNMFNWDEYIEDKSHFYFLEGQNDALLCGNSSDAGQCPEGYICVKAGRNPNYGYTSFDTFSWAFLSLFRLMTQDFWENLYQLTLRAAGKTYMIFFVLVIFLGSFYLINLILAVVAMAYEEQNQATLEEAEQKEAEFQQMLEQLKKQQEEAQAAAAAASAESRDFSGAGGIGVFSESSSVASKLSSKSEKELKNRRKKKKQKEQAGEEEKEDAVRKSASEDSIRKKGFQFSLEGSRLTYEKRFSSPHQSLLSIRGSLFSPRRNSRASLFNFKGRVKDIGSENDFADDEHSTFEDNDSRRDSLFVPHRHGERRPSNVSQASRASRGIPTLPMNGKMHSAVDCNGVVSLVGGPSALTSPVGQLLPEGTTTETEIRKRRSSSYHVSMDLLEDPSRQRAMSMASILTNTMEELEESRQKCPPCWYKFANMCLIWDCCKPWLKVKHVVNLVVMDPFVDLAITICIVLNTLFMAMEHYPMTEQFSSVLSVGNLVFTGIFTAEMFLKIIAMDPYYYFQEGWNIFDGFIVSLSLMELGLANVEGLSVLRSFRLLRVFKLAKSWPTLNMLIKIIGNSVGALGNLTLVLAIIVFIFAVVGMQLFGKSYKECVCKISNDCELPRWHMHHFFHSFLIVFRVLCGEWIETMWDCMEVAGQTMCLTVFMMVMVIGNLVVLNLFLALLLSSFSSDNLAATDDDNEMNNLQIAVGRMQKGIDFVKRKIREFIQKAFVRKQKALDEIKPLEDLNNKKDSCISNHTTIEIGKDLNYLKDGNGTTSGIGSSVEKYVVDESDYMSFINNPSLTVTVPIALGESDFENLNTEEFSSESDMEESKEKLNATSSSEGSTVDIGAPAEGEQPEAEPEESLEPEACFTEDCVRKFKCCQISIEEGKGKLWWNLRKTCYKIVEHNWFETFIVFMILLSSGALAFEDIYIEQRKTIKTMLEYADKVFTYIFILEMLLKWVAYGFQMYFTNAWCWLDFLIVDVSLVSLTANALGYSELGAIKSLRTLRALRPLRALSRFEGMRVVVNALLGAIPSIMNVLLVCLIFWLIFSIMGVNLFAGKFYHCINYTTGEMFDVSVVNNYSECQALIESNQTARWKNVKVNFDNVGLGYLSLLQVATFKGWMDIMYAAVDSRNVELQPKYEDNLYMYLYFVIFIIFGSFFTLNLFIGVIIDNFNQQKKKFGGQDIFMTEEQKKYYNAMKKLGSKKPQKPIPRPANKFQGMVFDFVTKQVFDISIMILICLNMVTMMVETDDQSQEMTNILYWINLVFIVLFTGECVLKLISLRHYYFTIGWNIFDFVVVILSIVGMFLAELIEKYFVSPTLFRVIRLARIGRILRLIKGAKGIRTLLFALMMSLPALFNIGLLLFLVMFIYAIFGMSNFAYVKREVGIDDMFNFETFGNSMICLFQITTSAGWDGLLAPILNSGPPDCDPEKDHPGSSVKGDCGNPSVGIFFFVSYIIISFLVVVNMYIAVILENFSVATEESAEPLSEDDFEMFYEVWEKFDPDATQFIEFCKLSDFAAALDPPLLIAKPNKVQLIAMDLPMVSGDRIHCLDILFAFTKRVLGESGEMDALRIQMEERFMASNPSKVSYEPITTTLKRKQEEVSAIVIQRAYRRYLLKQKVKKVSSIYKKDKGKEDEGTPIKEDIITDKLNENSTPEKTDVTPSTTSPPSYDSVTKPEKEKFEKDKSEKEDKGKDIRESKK

Regarding `NC1=N[C@H](O)[C@H]2[C@H]3O[C@]4(O)O[C@@H]([C@@H](O)[C@@]2(N1)[C@@H]4O)[C@]3(O)CO` [TTX, Tetrodotoxin], the “block of residual INa persisting with KIIIA or KIIIA[K7A]” value is on record as “completely blocked”.
